In PMC8945229, “Development and Biological Characterization of a Novel Selective TrkA Agonist with Neuroprotective Properties against Amyloid Toxicity” (Biomedicines, 2022):

Key:
[1] = set-up: method as in PMID 27498123, PMID 33638308; conditions: t = 60 min; cited from earlier work
[2] = system: Erk1/2; set-up: method as in PMID 27618740; conditions: cited from earlier work
[3] = molecular target: T1, TrkA (Rattus norvegicus, UniProt P35739); set-up: method as in PMID 27618740; conditions: cited from earlier work
T1 construct: we used PC12 cells, a cell line that express TrkA and p75^NTR; host or cells: PC12

[4] = system: γ-secretase; experiment: γ-secretase activity / APP processing in U2OS APP-C99-tGFP cells; type: cell-based; conditions: 3 μM, positive control
Procedure: PC12 and HEK293T cells were obtained from LGC Promochem GmbH (Teddington, UK) and cultured under the conditions specified by the manufacturer. NIH3T3 cells were stably transfected with human TrkB plasmid. PC12 cells were grown in DMEM medium (11965084, Gibco, Grand Island, NY, USA) containing 10% Horse Serum (16050122, Gibco, Grand Island, NY, USA), 5% Fetal Bovine Serum (10270106, Gibco, Grand Island, NY, USA), 100 units/mL Penicillin and 0.1 mg/mL Streptomycin (15140122, Gibco, Grand Island, NY, USA) at 5% CO2 and 37 °C. Cells were used between passages 5–20. HEK293T and NIH3T3 cells were grown in the same medium as PC12 cells supplemented with 10% Fetal Bovine Serum and lacking Horse Serum. For transient transfection of HEK293T cells, lipofectamine was used and cells were transfected with human p75^NTR and Traf6 plasmids. To determine the intracellular activity of endogenous secretases, we tagged (tGFP) a truncated mutant (Tm) of APP containing the original amino acids sequence from M516 to N773. This Tm conserves the secretases cleavage sites, clathrin binding site, tau protein binding site, collagen binding site and some glycosylation sites critical for protein localization and intracellular trafficking. The cDNA of the TmAPP gene was amplified by PCR and subcloned into pturbo-GFP vector. The construction was transfected into U2OS cells (ATCC Cat Number HTB-96) using Lipofectamine LTX (Thermo Fisher Scientific, Waltham, MA, USA). After 48 h, individual cells were plated in MTP96 plates using F.SIGHT (CYTENA GmbH, Freiburg, Germany), and cultured in complete medium containing 250 μg/mL G418 for selection. The selection medium was changed every two to three days. The cells were allowed to grow for 3 to 4 weeks, after which clones were isolated for further analysis. Resistant clones were checked by RT-PCR and epifluorescence microscopy.
The Alzheimer’s Disease (AD) phenotype is partly attributed to the toxic effects caused by oligmeric Aβ, which results in reduced neuronal trophic support, caused by deregulation of neurotrophic signaling. It is therefore reasonable that a small molecule that can selectively activate TrkA signaling and promote neuronal survival could alleviate the detrimental effects caused by toxic Aβ oligomers, especially during the early phases of the disease or modulate APP misprocessing and therefore reduce the production of the toxic Aβ. The U2OS stably expressing APP-C99-tGFP cell line was used in order to monitor γ-secretase activity, the process responsible for Aβ production from APP. The assay achieves this by measuring the levels of fluorescent APP-C99 construct produced by β-secretase activity. When γ-secretase is active, the construct is cleaved, leading to Aβ production. […] Therefore, higher fluorescence levels correspond to decreased γ-secretase activity and Aβ aggregate formation by extension. […] In addition, in order to investigate whether ENT-A013 can protect cells against Aβ-induced toxicity we isolated neurons from the hippocampus of E17.5 mouse embryos, a brain area that is heavily affected in AD. Neurons were left in culture for 16–18 DIV and then were treated with oligomeric Aβ and ENT-A013 for 48 h. Subsequently, cells were fixed and cell death was assessed using TUNEL assay.
(A,B) Primary hippocampal neurons were treated for 48 h with oligomeric Aβ in the presence of ENT-A013 and TUNEL assay was used to quantify cell death. Representative images from 3 independent experiments. Data are shown as ±SEM. One-way ANOVA, Tukey’s Test correction: ** p < 0.01; *** p < 0.001. (C) Aggregate formation on untreated cells, treated with DAPT inhibitor of γ-secretase or with compound ENT-A013. […] Aggregate formation was quantified with a BD Pathway 855 High-Content Bioimager and Attonvision software.

[5] = system: PC12 cells; experiment: CellTox assay, serum deprivation-induced cell death; type: cell-based; conditions: serum deprivation; for CellTox positive cells normalized to total number of cells: 24 h, 500 nM; for IC50: CellTox, read-out: IC50 (anti-apoptotic dose–response)
Procedure: CellTox assay (G8742, Promega Corporation, Maddison, WI, USA) was used to assess survival of PC12 cells under serum deprivation conditions. PC12 cells were plated in 96-well plates, starved of serum for 4 h and subsequently treated with NGF (100 ng/mL) or ENT-A013 (500 nM) in the presence or absence of TrkA inhibitor GW441756 (20 μM, G-190, Alomone labs, Jerusalem, Israel) for 24 h. CellTox assay reagents and Hoescht (1:10,000, H3570, Invitrogen, Waltham, MA, USA) were added to each well for 30′ and cells were then imaged with a Zeiss AXIO Vert A1 fluorescent microscope (Zeiss, Jena, Germany). CellTox positive cells were normalized to total number of cells for each image.

[6] = system: Erk1/2; experiment: Erk1/2 phosphorylation in PC12 cells (Western blot); type: cell-based; conditions: for Erk1/2 phosphorylation: 500 nM, 30′
Procedure: (§1) For immunoprecipitation experiments PC12 or HEK293T, cells were used when at 70–80% confluent. Cells were starved of serum for 4 h and subsequently treated with 100 ng/mL NGF or 500 nM of compound ENT-A013 for 30′. Cells were then lysed in Pierce™ IP Lysis Buffer (87788, Thermo Fischer Scientific, Waltham, MA, USA) containing proteases (539138, Calbiochem, Darmstadt, Germany) and phosphatase inhibitors (524629, Calbiochem, Darmstadt, Germany). Lysates were then immunoprecipitated overnight at 4 °C with TrkA antibody (1:100, 06-574, Sigma-Aldrich, St. Louis, MO, USA) (Table S1) or p75^NTR antibody (1:100, ab6172, Abcam plc., Cambridge, UK) followed by 4 h incubation with protein G-plus agarose beads (sc-2002, Santa Cruz Biotechnology, Inc., Dallas, TX, USA). Beads were then collected, washed 3X with lysis buffer, resuspended in SDS loading buffer and subjected to Western blot against phosphorylated Tyrosine (1:1000, BAM1676, R&D Systems, Inc., Minneapolis, MN, USA) or Traf6 antibody (1:2000, ab33915, Abcam, plc., Cambridge, UK). Whole cell lysates were subjected to Western blot against TrkA (1:1000, 06-574, Sigma-Aldrich, St. Louis, MO, USA), phosphorylated TrkB (1:1000, ABN1381, Sigma-Aldrich, St. Louis, MO, USA), phosphorylated TrkC (1:1000, STJ90960, St John’s Laboratory, Ltd., London, UK), TrkB (1:1000, 07-225-I, Sigma-Aldrich, St. Louis, MO, USA), TrkC (1:1000, C44H5, Cell Signaling Technology, Danvers, MA, USA), p75 (1:1000, 839701, Biolegend, Inc., San Diego, CA, USA), Traf6 (1:2000, ab33915, Abcam, plc., Cambridge, UK) phosphorylated Akt (1:1000, 9721S, Cell Signaling Technology, Danvers, MA, USA), phosphorylated Erk1/2 (1:1000, 9101S, Cell Signaling Technology, Danvers, MA, USA), total Akt (1:1000, 4691S Cell Signaling Technology, Danvers, MA, USA) and total Erk1/2 (1:1000, 4695S, Cell Signaling Technology, Danvers, MA, USA).

[7] = molecular target: T1, TrkA; experiment: TrkA phosphorylation in PC12 cells (IP with TrkA antibody, Western blot against phosphorylated Tyrosine); type: cell-based; conditions: for time TrkA phosphorylation is sustained after treatment: PC12 cells, 10, 30 or 60′ treatment
Procedure: as §1, with “Cells were starved of serum for 4 h and subsequently treated with 100 ng/mL NGF or 500 nM of compound ENT-A013 for 30′.” left out

T1 sequence (P35739 33-799): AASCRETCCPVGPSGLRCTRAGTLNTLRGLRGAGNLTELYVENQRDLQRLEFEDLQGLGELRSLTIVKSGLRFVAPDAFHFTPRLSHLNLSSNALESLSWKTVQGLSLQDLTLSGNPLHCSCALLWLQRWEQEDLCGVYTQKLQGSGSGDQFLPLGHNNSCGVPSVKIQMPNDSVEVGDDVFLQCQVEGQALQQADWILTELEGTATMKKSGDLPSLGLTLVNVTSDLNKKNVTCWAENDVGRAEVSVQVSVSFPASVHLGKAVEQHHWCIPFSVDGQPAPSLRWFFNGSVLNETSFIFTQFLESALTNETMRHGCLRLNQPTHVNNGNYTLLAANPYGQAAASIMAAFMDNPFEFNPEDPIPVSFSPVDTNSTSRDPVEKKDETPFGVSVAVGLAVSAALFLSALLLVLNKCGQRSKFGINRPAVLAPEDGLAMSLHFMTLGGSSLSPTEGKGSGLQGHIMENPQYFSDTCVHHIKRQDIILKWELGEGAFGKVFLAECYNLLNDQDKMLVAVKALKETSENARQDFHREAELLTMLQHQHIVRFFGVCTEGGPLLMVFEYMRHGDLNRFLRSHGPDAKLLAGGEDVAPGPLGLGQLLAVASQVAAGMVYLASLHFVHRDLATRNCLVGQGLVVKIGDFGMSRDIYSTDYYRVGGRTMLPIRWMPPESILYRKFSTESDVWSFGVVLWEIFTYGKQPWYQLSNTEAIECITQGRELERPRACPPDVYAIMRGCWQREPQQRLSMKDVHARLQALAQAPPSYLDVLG

Molecule | CellTox positive cells normalized to total number of cells [5] | IC50 [5] [nM] | time Erk1/2 phosphorylation is sustained after treatment [6] | Erk1/2 phosphorylation [6] | time TrkA phosphorylation is sustained after treatment [7] | further results
C[C@]12CC[C@H](O)CC1=CC[C@@H]1[C@@H]2CC[C@@]2(C)[C@H]1CC[C@@]21O[C@@H]1CO [BNN27] |  |  |  |  |  | residual of time zero [1]: 70%; time beyond which Erk1/2 is not activated [2]: ≤ 15 min; time TrkA is phosphorylated after treatment [3]: up to 6 hr
C[C@H](NC(=O)Cc1cc(F)cc(F)c1)C(=O)N[C@H](C(=O)OC(C)(C)C)c1ccccc1 [DAPT, reference compound] |  |  |  |  |  | fluorescence levels (APP-C99-tGFP, in words) [4]: Fluorescence levels increased
CC12CCC(O)CC1=CCC1C2CCC2(C)C1CCC21CC1C=CBr (stereo not drawn) [ENT-A013E] | 0.07 ± 0.02 | 281 | up to 1 hr | 7.87 ± 2.23 % of control FC | up to 1 hr | 
CC12CCC(O)CC1=CCC1C2CCC2(C)C1CCC21CC1C=CBr (stereo not drawn) [ENT-A013Z] | 0.08 ± 0.02 | 273 | up to 1 hr | 4.13 ± 1.46 % of control FC | up to 1 hr | 
NGF: Nerve Growth Factor, neurotrophin acting through TrkA and p75NTR receptors |  |  |  |  |  | TrkA phosphorylation ([7]; PC12 cells, compound 500 nM or NGF 100 ng/mL, 30′): 2.30 ± 0.62 % of control FC
